# Measurements reported in patent publication US8232279B2, “Pyrazolopyrimidine derivatives having biological activity on serotonin receptor 5-HT2c” (Korea Institute of Science and Technology, priority 2009, dated 2012).
# Target: T1, human recombinant 5-HT2C receptor (Homo sapiens, UniProt P28335)
# T1 construct: expressed in transfected cells
# T1 sequence (P28335 33-458): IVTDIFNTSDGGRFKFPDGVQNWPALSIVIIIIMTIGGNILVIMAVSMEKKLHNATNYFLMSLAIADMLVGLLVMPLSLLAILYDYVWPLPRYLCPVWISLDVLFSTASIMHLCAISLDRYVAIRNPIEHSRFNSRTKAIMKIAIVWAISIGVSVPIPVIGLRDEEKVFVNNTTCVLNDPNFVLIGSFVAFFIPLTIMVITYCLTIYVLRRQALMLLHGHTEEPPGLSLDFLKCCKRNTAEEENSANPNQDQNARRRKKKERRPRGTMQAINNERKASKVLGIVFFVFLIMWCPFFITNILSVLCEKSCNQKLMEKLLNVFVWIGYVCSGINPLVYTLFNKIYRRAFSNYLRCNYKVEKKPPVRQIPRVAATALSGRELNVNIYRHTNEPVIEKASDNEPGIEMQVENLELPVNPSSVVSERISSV
# Test: [3H]Mesulergine binding to serotonin 5-HT2C receptor
# Details: [3H]Mesulergine (1 nM); membranes from CHO-K1 cell line expressing human recombinant 5-HT2C receptor; 30 min at 37° C.; read-out: Affinity for 5-HT2C receptor (IC50)
# Description: [^3H]Mesulergine Binding to Serotonin 5-HT2C Receptor
# Frozen membranes from stable CHO—K1 cell line expressing the human recombinant 5-HT2C receptor were used. For the binding assay, [^3H]Mesulergine (1 nM), receptor membrane (4 ug/well) and test compounds were added into 50 mM Tris-HCl (pH 7.7) buffer containing 0.1% ascorbic acid and 10 uM pargyline. Nonspecific binding was determined using 0.5 uM mianserin. The incubations were performed for 30 min at 37° C., and these were terminated by rapid filtration through Whatman GF/C glass fiber filters presoaked in 1% BSA. Then, the resultant was washed with cold 50 mM Tris-HCl buffer. The filter was covered with MeltiLex, sealed in a sample bag followed by drying in the microwave oven, and counted by MicroBeta Plus (Wallac, Finland). Nonspecific binding was determined in the presence of mianserin (0.5 uM). Competition binding studies were carried out with 7-8 varied concentrations of the test compounds run in duplicate tubes, and isotherms from three assays were calculated by computerized nonlinear regression analysis (GraphPad Prism Program, San Diego, USA) to yield IC50 values (Table 1).
row,Structure (SMILES),IC50 [µM]
1,"COCCCNc1nc(Nc2ccc(F)cc2)c2cnn(C)c2n1 [Comp. 12, N^4-(4-fluorophenyl)-N^6-(3-methoxypropyl)-1-methyl-1H-pyrazolo[3,4-d]pyrimidine-4,6-diamine]",> 1
2,"CN1CCN(c2nc(Nc3ccccc3)c3cnn(C)c3n2)CC1 [Comp. 3, 1-methyl-6-(4-methylpiperazine-1-yl)-N-phenyl-1H-pyrazolo[3,4-d]pyrimidine-4-amine]",0.0869
3,"COc1cccc(Nc2nc(N3CCN(C)CC3)nc3c2cnn3C)c1 [Comp. 32, N-(3-methoxyphenyl)-1-methyl-6-(4-methylpiperazine-1-yl)-1H-pyrazolo[3,4-d]pyrimidine-4-amine]",0.0078
4,"CC1CCN(c2nc(Nc3ccc(F)cc3)c3cnn(C)c3n2)CC1 [Comp. 24, N-(4-fluorophenyl)-1-methyl-6-(4-methylpiperidine-1-yl)-1H-pyrazolo[3,4-d]pyrimidine-4-amine]",1.5
5,"Cn1ncc2c(Nc3ccc(F)cc3)nc(N3CCN(c4ccccc4)CC3)nc21 [Comp. 28, N-(4-fluorophenyl)-1-methyl-6-(4-phenylpiperazine-1-yl)-1H-pyrazolo[3,4-d]pyrimidine-4-amine]",0.416
6,"COc1cccc(Nc2nc(N3CCN(c4ccc(F)cc4)CC3)nc3c2cnn3C)c1 [Comp. 33, 6-(4-(4-fluorophenyl)piperazine-1-yl)-N-(3-methoxyphenyl)-1-methyl-1H-pyrazolo[3,4-d]pyrimidine-4-amine]",1.08
7,"CN1CCN(c2nc(Nc3ccc(F)cc3)c3cnn(C)c3n2)CC1 [Comp. 25, N-(4-fluorophenyl)-1-methyl-6-(4-methylpiperazine-1-yl)-1H-pyrazolo[3,4-d]pyrimidine-4-amine]",0.0858
8,"CC1CC(C)CN(c2nc(Nc3ccc(F)cc3)c3cnn(C)c3n2)C1 (stereo not drawn) [Comp. 23, 6-(3,5-dimethylpiperidine-1-yl)-N-(4-fluorophenyl)-1-methyl-1H-pyrazolo[3,4-d]pyrimidine-4-amine]",3.82
9,"Cn1ncc2c(Nc3ccc(F)cc3)nc(NC3CCCCC3)nc21 [Comp. 14, N^6-cyclohexyl-N^4-(4-fluorophenyl)-1-methyl-1H-pyrazolo[3,4-d]pyrimidine-4,6-diamine]",5.71
10,"Cn1ncc2c(Nc3ccc(F)cc3)nc(NCCN3CCOCC3)nc21 [Comp. 18, N^4-(4-fluorophenyl)-1-methyl-N^6-(2-morpholinoethyl)-1H-pyrazolo[3,4-d]pyrimidine-4,6-diamine]",> 1
11,"Cn1ncc2c(Nc3ccc(F)cc3)nc(N3CCN(c4ccc(F)cc4)CC3)nc21 [Comp. 29, N-(4-fluorophenyl)-6-(4-(4-fluorophenyl)piperazine-1-yl)-1-methyl-1H-pyrazolo[3,4-d]pyrimidine-4-amine]",0.148
12,"CCN(CC)c1nc(Nc2ccc(F)cc2)c2cnn(C)c2n1 [Comp. 20, N^6,N^6-diethyl-N^4-(4-fluorophenyl)-1-methyl-1H-pyrazolo[3,4-d]pyrimidine-4,6-diamine]",3.31
13,"Cn1ncc2c(Nc3ccc(F)cc3)nc(N3CCOCC3)nc21 [Comp. 21, N-(4-fluorophenyl)-1-methyl-6-morpholino-1H-pyrazolo[3,4-d]pyrimidine-4-amine]",2.07
14,"Cn1ncc2c(Nc3ccc(F)cc3)nc(NCc3ccccc3)nc21 [Comp. 16, N^6-benzyl-N4-(4-fluorophenyl)-1-methyl-1H-pyrazolo[3,4-d]pyrimidine-4,6-diamine]",2.59
15,"COc1ccccc1N1CCN(c2nc(Nc3ccc(F)cc3)c3cnn(C)c3n2)CC1 [Comp. 30, N-(4-fluorophenyl)-6-(4-(2-methoxyphenyl)piperazine-1-yl)-1-methyl-1H-pyrazolo[3,4-d]pyrimidine-4-amine]",1.73
16,"CNc1nc(Nc2ccc(F)cc2)c2cnn(C)c2n1 [Comp. 8, N^4-(4-fluorophenyl)-N^6,1-dimethyl-1H-pyrazolo[3,4-d]pyrimidine-4,6-diamine]",7.79

row,Structure (SMILES),IC50 [µM]
1,"COCCNc1nc(Nc2ccc(F)cc2)c2cnn(C)c2n1 [Comp. 11, N^4-(4-fluorophenyl)-N^6-(2-methoxyethyl)-1-methyl-1H-pyrazolo[3,4-d]pyrimidine-4,6-diamine]",> 1
2,"CCN(CC)c1nc(Nc2cccc(OC)c2)c2cnn(C)c2n1 [Comp. 31, N^6,N^6-diethyl-N^4-(3-methoxyphenyl)-1-methyl-1H-pyrazolo[3,4-d]pyrimidine-4,6-diamine]",5.42
3,"CCN(CC)c1nc(Nc2ccccc2C)c2cnn(C)c2n1 [Comp. 7, N^6,N^6-diethyl-1-methyl-N^4-o-tolyl-1H-pyrazolo[3,4-d]pyrimidine-4,6-diamine]",0.242
4,"Cn1ncc2c(Nc3ccc(F)cc3)nc(N3CCN(CCO)CC3)nc21 [Comp. 26, 2-(4-(4-(4-fluorophenylamino)-1-methyl-1H-pyrazolo[3,4-d]pyrimidine-6-yl)piperazine-1-yl)ethanol]",0.494
5,"CN1CCN(c2nc(Nc3ccc(Cl)cc3)c3cnn(C)c3n2)CC1 [Comp. 6, N^6-(4-chlorophenyl)-1-methyl-6-(4-methylpiperazine-1-yl)-1H-pyrazolo[3,4-d]pyrimidine-4-amine]",0.0294
6,"Cn1ncc2c(Nc3ccc(F)cc3)nc(N3CCN(Cc4ccccc4)CC3)nc21 [Comp. 27, 6-(4-benzylpiperazine-1-yl)-N-(4-fluorophenyl)-1-methyl-1H-pyrazolo[3,4-d]pyrimidine-4-amine]",0.836
7,"CCN(CC)c1nc(Nc2ccc(C)c(C)c2)c2cnn(C)c2n1 [Comp. 4, N^4-(3,4-dimethylphenyl)-N^6,N^6-diethyl-1-methyl-1H-pyrazolo[3,4-d]pyrimidine-4,6-diamine]",8.49
8,"Cn1ncc2c(Nc3ccc(F)cc3)nc(NC3CCCC3)nc21 [Comp. 15, N^6-cyclopentyl-N^4-(4-fluorophenyl)-1-methyl-1H-pyrazolo[3,4-d]pyrimidine-4,6-diamine]",> 1
9,"CCN(CC)c1nc(Nc2ccc(Cl)cc2)c2cnn(C)c2n1 [Comp. 5, N^4-(4-chlorophenyl)-N^6,N^6-diethyl-1-methyl-1H-pyrazolo[3,4-d]pyrimidine-4,6-diamine]",0.991
10,"Cc1ccc(CNc2nc(Nc3ccc(F)cc3)c3cnn(C)c3n2)cc1 [Comp. 17, N^4-(4-fluorophenyl)-1-methyl-N^6-(4-methylbenzyl)-1H-pyrazolo[3,4-d]pyrimidine-4,6-diamine]",5.83
11,"CCNc1nc(Nc2ccc(F)cc2)c2cnn(C)c2n1 [Comp. 9, N^6-ethyl-N^4-(4-fluorophenyl)-1-methyl-1H-pyrazolo[3,4-d]pyrimidine-4,6-diamine]",> 1
12,"Cn1ncc2c(Nc3ccc(F)cc3)nc(N3CCCCC3)nc21 [Comp. 22, N-(4-fluorophenyl)-1-methyl-6-(piperidine-1-yl)-1H-pyrazolo[3,4-d]pyrimidine-4-amine]",1.3
13,"Cn1ncc2c(Nc3ccc(F)cc3)nc(NCCCO)nc21 [Comp. 10, 3-(4-(4-fluorophenylamino)-1-methyl-1H-pyrazolo[3,4-d]pyrimidine-6-ylamino)propane-1-ol]",> 1
14,"CN1CCN(c2nc(Nc3ccc(F)cc3)c3cnn(C)c3n2)CC1 [Comp. 35, N-(4-fluorophenyl)-1-methyl-6-(4-methylpiperazine-1-yl)-1H-pyrazolo[3,4-d]pyrimidine-4-amine]",0.0201
15,"C=CCNc1nc(Nc2ccc(F)cc2)c2cnn(C)c2n1 [Comp. 13, N^6-allyl-N^4-(4-fluorophenyl)-1-methyl-1H-pyrazolo[3,4-d]pyrimidine-4,6-diamine]",> 1
16,"CN(C)c1nc(Nc2ccc(F)cc2)c2cnn(C)c2n1 [Comp. 19, N^4-(4-fluorophenyl)-N^6,N^6,1-trimethyl-1H-pyrazolo[3,4-d]pyrimidine-4,6-diamine]",4.03

# Same assay, conditions: read-out: Affinity for 5-HT2C receptor (IC50)
row,Structure (SMILES),IC50 [µM]
1,"COc1ccc(Nc2nc(N3CCN(c4ccc(F)cc4)CC3)nc3c2cnn3C)cc1 [Comp. 34, 6-(4-(4-fluorophenyl)piperazine-1-yl)-N-(4-methoxyphenyl)-1-methyl-1H-pyrazolo[3,4-d]pyrimidine-4-amine]",1.18
